Results from paper PMC6522510 (Nature Communications, 2019).
Read-outs that look alike come from different tables or passages of the source.

How the values were obtained:
Design in all cases: species or system AML cell lines (8); Primary HTS, single concentration about 10 uM, Cell Titer Glo viability; log10 luminescence, per cent inhibition relative to cycloheximide control
Settings in all cases: 72 h, relative to cycloheximide control, log10 luminescence, inhibitor
MV4-11 = test system: MV4-11
CMK = test system: CMK
ML-2 = test system: ML-2
U937 = test system: U937
CMS = test system: CMS
MOLM-13 = test system: MOLM-13
CHRF288-11 = test system: CHRF288-11
M07e = test system: M07e

| Structure (SMILES) | MV4-11 %inh (MV4-11) [%] | CMK %inh (CMK) [%] | ML-2 %inh (ML-2) [%] | U937 %inh (U937) [%] | CMS %inh (CMS) [%] | MOLM-13 %inh (MOLM-13) [%] | CHRF288-11 %inh (CHRF288-11) [%] | M07e %inh (M07e) [%] | MV4-11 %inh (MV4-11; MV4-11 %inh, 10 µM) [%] | CMK %inh (CMK; CMK %inh, 10 µM) [%] | ML-2 %inh (ML-2; ML-2 %inh, 10 µM) [%] | U937 %inh (U937; U937 %inh, 10 µM) [%] | CMS %inh (CMS; CMS %inh, 10 µM) [%] | MOLM-13 %inh (MOLM-13; MOLM-13 %inh, 10 µM) [%] | CHRF288-11 %inh (CHRF288-11; CHRF288-11 %inh, 10 µM) [%] | M07e %inh (M07e; M07e %inh, 10 µM) [%] |
| --- | --- | --- | --- | --- | --- | --- | --- | --- | --- | --- | --- | --- | --- | --- | --- | --- |
| Cn1cc(C2=C(c3cn(C)c4cc(N)ccc34)C(=O)NC2=O)c2ccccc21 [SJ000581154-1] | 66.53 | 105.6 | 25.1 | 39.79 | 49.07 | 77.98 | 40.91 | 38.42 | – | – | – | – | – | – | – | – |
| CCc1c(C)nc2sc3c(N)ncnc3c2c1C [SJ000581155-1] | 0.965 | 26.14 | 1.162 | 2.164 | 6.427 | 58.52 | 5.014 | 3.066 | – | – | – | – | – | – | – | – |
| Nc1c(C(=O)c2cccc(-c3ccc[n+]([O-])c3)c2)cnn1-c1ccc(F)cc1F [SJ000581156-1] | 2.306 | 6.727 | 2.597 | 3.963 | -0.9836 | 3.379 | 0.7431 | 5.956 | – | – | – | – | – | – | – | – |
| CC(CO)Nc1cc(-c2[nH]c3cccnc3c2-c2ccc(F)cc2)ccn1 (stereo not shown) [SJ000581157-1] | 5.71 | 13.38 | 3.05 | 3.658 | 7.57 | 1.967 | 7.035 | 3.935 | – | – | – | – | – | – | – | – |
| COc1cc[nH]c1/C=C1\C(=O)Nc2ccc(F)c(C#C[C@@H](O)[C@@H](N)[C@@H](C)O)c21 [SJ000581159-1] | 92.6 | 112.6 | 60.99 | 83.42 | 97.96 | 95.78 | 61.95 | 87.08 | – | – | – | – | – | – | – | – |
| Cn1cc(C2=C(c3ccc(N)cc3)C(=O)NC2=O)c2ccccc21 [SJ000581160-1] | 3.731 | 8.525 | 2.229 | 1.651 | 6.332 | 6.461 | 1.792 | 7.926 | – | – | – | – | – | – | – | – |
| Cc1ccccc1C1=C(c2cn(C)c3ccccc23)C(=O)NC1=O [SJ000581162-1] | 6.408 | 3.937 | 3.854 | 0.403 | 6.978 | 0.3788 | 8.356 | 5.581 | – | – | – | – | – | – | – | – |
| Cn1c(=O)c(-c2ccccc2Cl)cc2cnc(NC3CCOCC3)nc21 [SJ000581163-1] | 5.265 | 15.25 | 1.667 | 4.292 | 7.391 | 7.929 | 6.112 | 8.813 | – | – | – | – | – | – | – | – |
| COc1cc(F)c(F)c(F)c1C(=O)c1cnc(NC2CCN(S(C)(=O)=O)CC2)nc1N [SJ000581164-1] | 22.69 | 59.95 | 21.95 | 40.5 | 23.31 | 83.36 | 47.57 | 35.86 | – | – | – | – | – | – | – | – |
| Cn1cc(C2=C(c3cn(CCCCCN)c4ccccc34)C(=O)NC2=O)c2ccccc21 [SJ000581165-1] | 1.637 | 0.6124 | 1.663 | 0.4783 | 0.9818 | 2.139 | 2.441 | 4.895 | – | – | – | – | – | – | – | – |
| O=C1OC(=O)C(c2c[nH]c3ccccc23)=C1c1c[nH]c2ccccc12 [SJ000581166-1] | 1.035 | 0.5161 | 2.957 | 1.32 | 5.505 | 3.376 | 5.422 | -1.376 | – | – | – | – | – | – | – | – |
| NC1=NC(=O)/C(=C/c2ccc3ncccc3c2)S1 [SJ000581167-1] | 20.86 | 14.91 | 6.393 | 10.35 | 1.297 | 12.5 | 7.843 | -0.544 | – | – | – | – | – | – | – | – |
| COc1ccc(N2Cc3cnc(Nc4ccccc4)nc3N([C@@H]3CC[C@@H](O)C3)C2=O)cc1 [SJ000581169-1] | 9.017 | 31.32 | 3.259 | 3.756 | -0.5577 | 15.09 | 84.91 | 3.499 | – | – | – | – | – | – | – | – |
| CN1CCN(CCc2cccc(C(=O)c3cnn(-c4ccc(F)cc4)c3N)c2)CC1 [SJ000581170-1] | 3.349 | 6.346 | 2.973 | 7.701 | 1.769 | 4.249 | -2.499 | 1.993 | – | – | – | – | – | – | – | – |
| Cn1c(=O)c(Oc2ccccc2)cc2cnc(NC3CCOCC3)nc21 [SJ000581171-1] | 4.76 | 8.741 | 2.493 | 5.834 | 6.487 | 4.705 | 9.708 | 1.8 | – | – | – | – | – | – | – | – |
| Nc1c(C(=O)c2cccc(-c3ccncc3)c2)cnn1-c1ccc(F)cc1 [SJ000581172-1] | 2.351 | 6.56 | 3.419 | 13.25 | 2.678 | 5.84 | -2.059 | 6.562 | – | – | – | – | – | – | – | – |
| Cc1[nH]nc2c1N=C(c1ccccc1Cl)c1cc([N+](=O)[O-])ccc1N2 [SJ000581173-1] | 86.62 | 116.1 | 56.78 | 91.37 | 91.81 | 62.4 | 37.73 | 57.3 | – | – | – | – | – | – | – | – |
| Nc1c(C(=O)c2ccc(C#CCN3CCOCC3)cc2)cnn1-c1ccc(F)cc1 [SJ000581175-1] | 6.7 | 5.964 | -0.5007 | 8.015 | 1.749 | 6.812 | -0.8034 | -0.05766 | – | – | – | – | – | – | – | – |
| CNCCCn1cc(C2=C(c3cn(C)c4ccccc34)C(=O)NC2=O)c2ccccc21 [SJ000581176-1] | 44.21 | 37.79 | 2.284 | 9.304 | 6.195 | 86.21 | 23.82 | 23.08 | – | – | – | – | – | – | – | – |
| CNc1ncc2cc(Oc3ccc(F)cc3F)c(=O)n(C)c2n1 [SJ000581177-1] | 2.766 | 4.145 | 0.6187 | 2.229 | -2.096 | 3.528 | -5.721 | -0.008012 | – | – | – | – | – | – | – | – |
| COc1cccc(F)c1C(=O)c1cnc(NC2CCN(S(C)(=O)=O)CC2)nc1N [SJ000581178-1] | 20.51 | 27.9 | 11.75 | 27.27 | 16.64 | 39.82 | 12.21 | 26.23 | – | – | – | – | – | – | – | – |
| CCCC[C@@H](C=O)NC(=O)[C@H](CC(C)C)NC(=O)OCc1ccccc1 [SJ000755074-1, CALPEPTIN] | – | – | – | – | – | – | – | – | 4.895 | -0.01297 | -0.6331 | 2.282 | 3.296 | 2.613 | 18.64 | 0.9114 |
| CCCC[C@@H](C=O)NC(=O)[C@H](CC(C)C)NC(=O)OCc1ccccc1 [SJ000755074-2, CALPEPTIN] | – | – | – | – | – | – | – | – | 8.208 | -0.8705 | 0.3376 | 3.349 | 2.144 | 5.31 | 27.98 | 2.133 |
